# Source: patent US9388120B2, “Nitrogen and hindered phenol containing dual functional macromolecular antioxidants: synthesis, performances and applications” (Polnox Corporation, priority 2005, dated 2016)
# What was measured:
# [1] = Oxidative induction time (OIT) by DSC in polyol ester based base stock oil; settings: antioxidant at 200 ppm in polyester based base stock; DSC at 200° C., oxygen at 20 ml/min
# Protocol: (§1) Macromolecules V and A were tested for their performance in lubricant oils and polymers. The macromolecules were mixed in oil with stirring at 60° C. for 5-15 mins at 200 ppm in petroleum based Group II base stock and polyol based Group V base stock oils. The performance of these antioxidants were evaluated in lubricant base oil stocks including Group II using the DSC technique for determining their oxidation induction times measured in minutes (OIT) at 200° C. The OITs of the antioxidants having structures V and A were compared with commercial antioxidants [L57: Ciba's Irganox L57, 6PPD: N-hexyl phenyl-1,4-phenylene diamine CAS #793-24-8)].
# The summary of performance of antioxidants I, II, V, X, XVIII and A and their comparison with commercial antioxidants L 57 and 6PPD in synthetic polyol ester based oil is shown in Table 1. The macromolecules were mixed in oil with stirring at 60° C. for 5-15 mins at 200 ppm in petroleum based Group II base stock and polyol based Group V base stock oils.
# [2] = Oxidative induction time (OIT) by DSC in Group II lubricating base oil; settings: 200 ppm; for OIT performance (FIG. 2) compared with commercial antioxidants: GII base oil, DSC at 200° C., versus L57 and 6PPD
# Protocol: Macromolecule A was mixed with oil at 60° C. for 5-15 minutes at 200 ppm in petroleum based group II base stock oil and polyol based Group V base stock oils. It was tested using differential scanning calorimetry (DSC). Its Oxidative Induction Time (OIT) was also compared with commercially used antioxidants 2,6-di-tert-butyl-phenol, Naugalube APAN (PANA) and Vanlube 81 (DODP).
# as §1
# [3] = Solubility in Group II lubricant oil base stock; format: physicochemical; settings: 10 g in 90 g Group II lubricant oil base stock, stirred 15 mins at 60° C.; industry standard 1-2%
# Protocol: [drawing 67] 10 g of the antioxidant V was added to 90 g of Group II lubricant oil base stock in a beaker. […] This solubility is much higher than the typical industry standards of 1-2%.
Structure (SMILES),OIT @ 200 ppm [1] [min],OIT performance (FIG. 2) compared with commercial antioxidants [2],"protection of lubricating oils against oxidation (OIT, FIG. 1) compared with commercial antioxidants ([2]; Group II lubricating oil, DSC, versus 2,6-di-tert-butyl-phenol, Naugalube APAN (PANA), Vanlube 81 (DODP))",solubility in Group II base stock [3]
CC(C)(C)c1cc(CNc2ccc(Nc3ccccc3)cc2)c(O)c(C(C)(C)C)c1 [A],37,superior performance,superior,
"CC(C)CC(C)Nc1ccc(Nc2ccccc2)cc1 (centres unmarked) [Antioxidant 6PPD, N-hexyl phenyl-1,4-phenylene diamine, reference compound]",22,,,
CC(C)CC(C)N(Cc1cc(C(C)(C)C)c(O)c(C(C)(C)C)c1)c1ccc(Nc2ccccc2)cc1 (centres unmarked) [V],36,superior performance,,homogenous solution
Cc1cc(CNc2ccc(Nc3ccccc3)cc2)cc(C(C)(C)C)c1O [X],28,,,
